The text below walks through data of patent US10865192B2, “Nicotine salts, co-crystals, and salt co-crystal complexes” (priority 2014, dated 2020).

Read-outs that look alike come from different tables or passages of the source.

The conditions of data set [1]: for Relative humidity at which sample deliquesced in GVS (stable until): GVS adsorption; for Relative humidity at which sample deliquesced in GVS (stable until) / On desorption, moisture retained down to / water lost by / Total weight change 0-90% RH / Hygroscopicity / behaviour in GVS experiment: 25° C.; for Behaviour after deliquescence when humidity is reduced / On desorption, moisture retained down to / water lost by: GVS desorption; for XRPD of residue after GVS: residue recovered after GVS isotherm. As for the experimental part: Sorption isotherms were obtained using a SMS DVS Intrinsic moisture sorption analyzer, controlled by DVS Intrinsic Control software v1.0.1.2 (or v 1.0.1.3). The sample temperature was maintained at 25° C. by the instrument controls. The humidity was controlled by mixing streams of dry and wet nitrogen, with a total flow rate of 200 ml/min The relative humidity was measured by a calibrated Rotronic probe (dynamic range of 1.0-100% RH), located near the sample. The weight change, (mass relaxation) of the sample as a function of % RH was constantly monitored by the microbalance (accuracy±0.005 mg).
Typically 5-20 mg of sample was placed in a tared mesh stainless steel basket under ambient conditions. The sample was loaded and unloaded at 40% RH and 25° C. (typical room conditions). A moisture sorption isotherm was performed as outlined below (2 scans giving 1 complete cycle). The standard isotherm was performed at 25° C. at 10% RH intervals over a 0-90% RH range. Data analysis was carried out using Microsoft Excel using DVS Analysis Suite v6.2 (or 6.1 or 6.0).
The sample is recovered after completion of the isotherm and re-analyzed by XRPD.

Data set [2] can be described thus: Static stability at elevated humidity (appearance and XRPD after storage). The note with it: for Static stability 25° C./96% RH: storage at 25° C./96% RH; for Static stability 25° C./96% RH / Static stability 40° C./75% RH: up to 1 week, appearance and XRPD; for Static stability 40° C./75% RH: storage at 40° C./75% RH; for Result (stability of screening orotic acid salts): Table 3, XRPD dry and after 1 week at 40° C./75% relative humidity (FIG. 14); for Result (stability of screening fumaric acid salts): Table 8, 40° C./75% RH, 1 day.

The conditions of data set [3]: exposed to 650° C.

On to “(S)-nicotine mono-orotate hemi-hydrate [Salt B]”, for which, in data set [1], the “Relative humidity at which sample deliquesced in GVS (stable until)” value is 80% RH then deliquesced On; the “Behaviour after deliquescence when humidity is reduced” value is “re-crystallized”; the “On desorption, moisture retained down to / water lost by” value is given as “down to 60% RH XRPD of residue”; the “XRPD of residue after GVS” value is given as “Pattern 2 with some Orotate Pattern 1”. In addition, in data set [1] (listed as Orotate Pattern 2), the “Relative humidity at which sample deliquesced in GVS (stable until)” value turned out to be 80 % RH; the “On desorption, moisture retained down to / water lost by” value was found to be 60 % RH; the “XRPD of residue after GVS” value is recorded as “contained some Pattern 1 material”. In addition, in data set [1] (GVS isotherm, 0-90% RH), the “Total weight change 0-90% RH” value is “RH = ~60 wt. %, stable until”. Moreover, in data set [2] (high humidity, general statement), the “Stability on exposure to high / elevated humidity” value is listed as “not stable to exposure to high humidity”. For the same compound, in data set [2], the “Static stability 25° C./96% RH” value is listed as “Sticky after 24 hours, deliquesced” and the “Static stability 40° C./75% RH” value was “Pattern 2, sticky material”. In addition, in data set [2] (listed as Orotate Pattern 2), the “Static stability 25° C./96% RH” value is recorded as “deliquesced” and the “Static stability 40° C./75% RH” value is “sticky material”. In addition, the “Nicotine liberated on decomposition (peak areas)” value (“Nicotine liberated” for short) in data set [3] stood at 97 % peak areas.

In the case of `CN1CCCC1c1cccnc1.O=C(O)/C=C/C(=O)O` (centres unmarked) [Fumarate salt (prepared in THF), nicotine fumarate], the “Behaviour after deliquescence when humidity is reduced” value is listed as “remains a liquid” in data set [1] (fumarate) and “does not re-crystallize” in data set [1] (listed as Fumarate Pattern 1, fumarate). For the same compound, the “Weight gain from 0-90% RH in the GVS isotherm” value in data set [1] (GVS isotherm, 0-90% RH) turned out to be 82%. In data set [1] (GVS isotherm, 0-90% RH), the “Total weight change 0-90% RH” value was “Total weight change 0-90% RH = 82 wt. %”. Besides, the “Hygroscopicity / behaviour in GVS experiment” value in data set [1] (0-90% RH, fumarate) is on record as “wt. %, sample deliquesces and”; in data set [1] (0-90% RH, listed as Fumarate Pattern 1, fumarate), “hygroscopic”. Moreover, in data set [2], the “Humidity at which the form deliquesces (elevated humidities)” value was above 75 % RH. The “Nicotine liberated” value in data set [3] was 97 % peak areas.

Take `CN1CCCC1c1cccnc1.O=C(O)c1cc(=O)[nH]c(=O)[nH]1.O=C(O)c1cc(=O)[nH]c(=O)[nH]1` (centres unmarked) [Formation in ethanol]: in data set [2], the “Result (stability of screening orotic acid salts)” value was “Stable”.

On to `CN1CCCC1c1cccnc1.O=C(O)c1cc(=O)[nH]c(=O)[nH]1` (centres unmarked) [Grinding], for which the “Result (stability of screening fumaric acid salts)” value in data set [2] is recorded as “Deliquesced”.

Regarding (S)-nicotine bis-orotate [Salt A], the “Thermal stability” value is recorded as “thermally stable”. Also, the “Total weight change 0-90% RH” value in data set [1] (GVS isotherm, 0-90% RH) is “RH = 0.8 wt. %, steady change in”. The “Hygroscopicity / behaviour in GVS experiment” value in data set [1] (0-90% RH) is “only slightly hygroscopic”. Moreover, the “XRPD of residue after GVS” value in data set [1] was “XRPD of residue showed no”. For the same compound, in data set [2], the “Static stability 25° C./96% RH” value is “Pattern 1, runny material” and the “Static stability 40° C./75% RH” value is “No change”. Besides, the “Static stability 25° C./96% RH” value in data set [2] (listed as Orotate Pattern 1) is on record as “runny material”. Further, the “Static stability 25° C./96% RH” value in data set [2] (listed as bis-orotate salt-co-crystal) was “runny material”. Besides, the “Nicotine liberated” value in data set [3] worked out at 97 % peak areas.

On to `CN1CCCC1c1cccnc1.O=C(O)c1cc(=O)[nH]c(=O)[nH]1` (centres unmarked) [Formation in water], for which the “Result (stability of screening orotic acid salts)” value in data set [2] was “Stable”.

As to `CN1CCCC1c1cccnc1.O=C(O)C=CC(=O)O` (centres unmarked) [Formation in neat nicotine], in data set [2], the “Result (stability of screening fumaric acid salts)” value is on record as “Deliquesced”.
